Assays:
[1] = vs. Ag/AgCl; cited from earlier work
[2] = test system: T. cruzi (Dm28 strain) in BeWo cells; experiment: Infection of BeWo cells by T. cruzi, infected cells counted by fluorescence microscopy; format: cell-based, Trypanosoma cruzi; settings: compound at IC50, untreated control 24 ± 3
Description: The effect of the compounds on the infection of BeWo trophoblast cells by T. gondii and T. cruzi was assessed. The DNA of T. gondii and T. cruzi was quantified in infected BeWo cells treated for 24 hours under two conditions: co-incubation and post-infection treatment. […] Fluorescence microscopy was employed to quantify the number of infected cells. The resulting images were analyzed using ImageJ software to count both infected and uninfected cells.
For the microscopic analysis of BeWo cells infected with T. cruzi, the cells were washed with PBS to remove the supernatant, fixed with 90% cold methanol, rewashed with PBS, and incubated for 5 minutes with 1 µg/mL—1 4,6-diamidino-2-phenylindole (DAPI) (Molecular Probes). To analyze BeWo cells infected with T. gondii, cells were fixed with 90% cold methanol, washed with PBS containing 0.05% Tween, and blocked using 3% BSA for 1 hour at 37°C. Then, they were incubated with the primary monoclonal antibody Toxoplasma gondii (TP3): sc-52255 at a dilution of 1:500 with 1% BSA overnight at 4°C. […] T. cruzi amastigotes were identified by their morphology, including nuclear size and the presence of a kinetoplast, and were analyzed and quantified using ImageJ. At least 500 cells per condition were analyzed, and infected and non-infected cells were counted for every 100 cells ([35], [70]). […]

[3] = test system: T. cruzi (Dm28 strain) in HPE; experiment: T. cruzi DNA load in infected human placental explants (HPE) by real-time qPCR; format: cell-based, Trypanosoma cruzi; settings: IC50 concentration
Description: Cells or HPE were exposed to parasites. […] The following treatment conditions were used in both infection models.

[4] = Cytotoxicity on cells (resazurin), BeWo; format: cell-based; settings: human, BeWo trophoblast cells
Description: (§1) Triton X-100 was used as a positive control, and untreated cells served as a negative control. In addition, the maximum concentration of DMSO was used as a control for the method. […] The obtained values were expressed as IC50([88]).

[5] = test system: human placental explants (HPE); experiment: Histopathology of uninfected HPE exposed to the compounds alone; settings: explants incubated only with the compound, 24 h, IC50 concentration
Description: The HPE was fixed in 10% formaldehyde in 0.1 M phosphate buffer (pH 7.3) for 24 h, dehydrated in alcohol, clarified in xylene, embedded in paraffin, and sectioned at 3 µm. Paraffin histological sections were stained with hematoxylin-eosin for routine histological analysis, Picro Sirius red, and trichromic Masson for collagen histochemistry. Sections for the histological analysis were observed under an optical microscope (Leica DM500) and images were captured with a Leica ICC50 W camera ([7], [91]).

[6] = Cytotoxicity on cells (resazurin), EA.hy926; format: cell-based; settings: human, EA.hy926 endothelial cells
Description: as §1

[7] = test system: T. cruzi trypomastigotes, Dm28 strain; settings: read-out: IC50 T. cruzi; cited from earlier work
[8] = test system: T. cruzi trypomastigotes, Dm28 strain; experiment: Resazurin viability assay on free T. cruzi trypomastigotes; settings: parasite T. cruzi
Description: The reduction of resazurin sodium salt was used to determine the trypanocidal and toxoplasmicidal activity of the 6-nitrocoumarin-thiosemicarbazone hybrids 1–8. For this, treatment with the compounds was carried out for 24 h at a concentration of 100 µM.
NFX was used as a positive control for T. cruzi, and PMN was used for T. gondii. Untreated parasites served as a negative control. […] Subsequently, parasites with their respective conditions were transferred to a 96-well white fluorescence reading plate, adding resazurin at a final concentration of […] with 0.8 mM phenazine. The plate was incubated for 3 hours at 37°C in a humidified atmosphere with 5% CO2, and fluorescence measurements were taken using a microplate reader (Thermo Scientific Varioskan Flash) at excitation wavelengths of 560 nm and emission wavelengths of 590 nm.

[9] = test system: HPE exposed to T. cruzi trypomastigotes; experiment: Histopathology of HPE infected with T. cruzi; format: cell-based, human; settings: co-incubation, IC50 concentration

In the case of `CC1CS(=O)(=O)CCN1/N=C/c1ccc([N+](=O)[O-])o1` (stereo not shown) [NFX, nifurtimox, reference compound], the “E(pIIa)” value [1] is given as −0.70 V, the “E(pIIc)” value [1] is given as −0.75 V and the “Infected cells (%)” value ([2]; co-incubation 24 h) is given as 2 ± 1%. The “Infected cells (%)” value ([2]; post-infection treatment 24 h) was 23 ± 4%, the “effect on parasite DNA load” value ([3]; co-incubation) was “managed to reduce the parasitic load” and the “effect on parasite DNA load” value ([3]; post-infection treatment) was “no statistically significant activity”. For the same compound, the CC50 at 24 h [4] was greater than 300 µM, the “tissue damage caused by the compound itself in HPE” value [5] was “caused tissue damage” and the CC50 at 24 h [6] was 348.5 ± 1.2 µM. The IC50 [7] was 10 ± 0.4 µM, the “SI = BeWo CC50/parasite IC50” value [8] was greater than 30 and the “SI = EA.hy926 CC50/parasite IC50” value [8] was 34.9. For the same compound, the “tissue damage in infected HPE (histopathology)” value [9] was “caused tissue damage”.

From PMC12406664, “New derivatives of 6-nitrocoumarin-3-thiosemicarbazone exhibit improved antiparasitic activity in the placenta against Trypanosoma cruzi and Toxoplasma gondii” (Antimicrobial Agents and Chemotherapy, 2025)
